Assay results: ChEMBL document CHEMBL2029311, “Design, synthesis, and evaluation of a novel class of 2,3-disubstituted-tetrahydro-β-carboline derivatives” (2012)

Tested on: Mus musculus
Assay: Antiinflammatory activity in ICR mouse assessed as inhibition of xylene-induced ear edema at 10 umol/kg, po administered 30 mins before xylene challenge relative to control
Type: functional

Row | SMILES | inhibition in vivo at 10 µmol/kg
1 | CC(=O)OC[C@H]1O[C@@H](OC(C)=O)[C@H](NC(=O)[C@@H]2Cc3c([nH]c4ccccc34)CN2C(=O)[C@H](C)NC(=O)OC(C)(C)C)[C@@H](OC(C)=O)[C@@H]1OC(C)=O | 82%
2 | CC(=O)OC[C@H]1O[C@@H](OC(C)=O)[C@H](NC(=O)[C@@H]2Cc3c([nH]c4ccccc34)CN2C(=O)CNC(=O)OC(C)(C)C)[C@@H](OC(C)=O)[C@@H]1OC(C)=O | 58.6%
3 | C[C@H](NC(=O)OC(C)(C)C)C(=O)N1Cc2[nH]c3ccccc3c2C[C@H]1C(=O)N[C@H]1C(O)O[C@H](CO)[C@@H](O)[C@@H]1O (mixture of isomers) | 51.9%
4 | C[C@H](N)C(=O)N1Cc2[nH]c3ccccc3c2C[C@H]1C(=O)N[C@H]1C(O)O[C@H](CO)[C@@H](O)[C@@H]1O (mixture of isomers) | 66%
5 | CC(=O)OC[C@H]1O[C@@H](OC(C)=O)[C@H](NC(=O)[C@@H]2Cc3c([nH]c4ccccc34)CN2C(=O)OC(C)(C)C)[C@@H](OC(C)=O)[C@@H]1OC(C)=O | 71.2%

Tested on: Mus musculus
Assay: Antiinflammatory activity in ICR mouse assessed as inhibition of xylene-induced ear edema at 100 mg/kg, po administered 30 mins before xylene challenge relative to control
Type: functional

Row | SMILES | inhibition in vivo at 100 mg/kg
6 | CC(=O)Oc1ccccc1C(=O)O [ASPIRIN] | 89.5%
